From US7732485B2, “Treatment of cancer” (The University of Manchester, priority 2003, dated 2010)

Key:
A2780-S cell line = experiment: Growth inhibition assay (modified MTT); format: cell-based, human; conditions: five-day MTT
Description: (§1) The sensitivities of the cell lines to cisplatinum, carboplatinum, and compounds A-F were determined using a growth inhibition assay which was a modified version of the MTT method (modified version of MTT method described in Appendix B).
(§2) The following is a brief description of the eleven different cell lines used in the growth inhibition assay: • The A2780 cell line (1 in FIGS. 1-9) is a human ovarian cell line which is sensitive to cisplatinum and carboplatinum. […] The cor123/cpr (7) cell line is a modified version of the cor123 cell line which has been modified to be resistant to cisplatinum and carboplatinum. • The ccu24 (8) cell line is an epithelial ovarian cancer cell line, developed at the Christie Hospital from a tumour biopsy, and the ccu24/cpr (9) cell line is a modified version of this cell line which is cisplatinum and carboplatinum resistant. • L1210 (10) is a murine leukemia cell line and L1210/M1140 (11) is its platinum drug resistant subline.
(§3) The cell toxicity studies were performed using a modification of the method MTT.^7 The principle of the assay is to assess the growth inhibitory effect of a drug at various doses over a five-day time course. This assay was performed in 96-well microtitre plates. Cells were seeded at densities of 400-1,000 cells per well, depending on the doubling time of the cell line. All cell dilutions were performed in growth medium containing 10% FCS (foetal calf serum).
(§4) Compounds under investigation were dissolved in DMSO (dimethylsulphoxide). Serial dilutions of compound were made into the cell suspension, ensuring that the proportion of DMSO remained below 0.5%. 200 μl of cells and drug mix was added to the 96-well plates in triplicate. The plates were incubated for five days at 5% CO2 and 37° C. After this time, the plates were removed from the incubator and 50 μl of a 3 mg/ml solution of MTT [3-(4,5-dimethyl-thiazol-2-yl)-2,5-diphenyl tetrazolium bromide] was added to each well and incubated in the same conditions for another 3 hours. The medium from each well was aspirated and the formazan crystals were solubilised in 200 μl of DMSO. The plates were read using a Multiskan platereader at 540 nm and 690 nm. Growth inhibition curves were constructed using mean and standard deviation of the triplicate absorbance values and from these curves the IC50 values were calculated.

A2780carb cell line = experiment: Growth inhibition assay (modified MTT); format: cell-based, human; conditions: A2780carb, five-day MTT
Description: as §1, §2, §3, §4

A2780cis cell line = experiment: Growth inhibition assay (modified MTT); format: cell-based, human; conditions: A2780cis, five-day MTT
Description: as §1, §2, §3, §4

ccu24 cell line = experiment: Growth inhibition assay (modified MTT); format: cell-based, human; conditions: five-day MTT
Description: as §1, §2, §3, §4

ccu24/cpr cell line = experiment: Growth inhibition assay (modified MTT); format: cell-based, human; conditions: five-day MTT
Description: as §1, §2, §3, §4

cor123 cell line = experiment: Growth inhibition assay (modified MTT); format: cell-based, human; conditions: five-day MTT
Description: as §1, §2, §3, §4

cor123/cpr cell line = experiment: Growth inhibition assay (modified MTT); format: cell-based, human; conditions: five-day MTT
Description: as §1, §2, §3, §4

mcp1 cell line = experiment: Growth inhibition assay (modified MTT); format: cell-based, human; conditions: five-day MTT
Description: as §1, §2, §3, §4

mcp8 cell line = experiment: Growth inhibition assay (modified MTT); format: cell-based, human; conditions: five-day MTT
Description: as §1, §2, §3, §4

L1210 cell line = experiment: Growth inhibition assay (modified MTT); format: cell-based, murine; conditions: five-day MTT
Description: as §1, §2, §3, §4

L1210/M1140 cell line = experiment: Growth inhibition assay (modified MTT); format: cell-based, murine; conditions: five-day MTT
Description: as §1, §2, §3, §4

[1] = system: parental and platinum-resistant cell lines; experiment: Comet assay, DNA cross-linking, summary of FIGS. 1-9; format: cell-based; conditions: FIGS. 1 and 2
Description: (§5) Preliminary studies have been carried out to investigate the mechanism underlying this increased sensitivity. These studies were carried out using the Comet assay (described in Appendix C), which measures damage to DNA. The results are shown in FIGS. 1 (cisplatinum), 2 (carboplatinum), 3 to 8 (compounds A-F) and 9 (phenylgoldtriphenylphospine, PAuP).
(§6) DNA damage was measured by the single cell gel electrophoresis (SCGE) assay or “Comet assay”, originally developed by Ostling and Johnson^8. This is a method for determining the extent of DNA damage and repair capacity within individual cells.^9-11 It has previously been shown that this technique can be used to investigate the mechanism of action of different DNA damaging agents.^12
(§7) Cells were trypsinised, suspended in 0.5 ml of ice cold fresh medium and transferred into plastic 24-well dishes prior to embedding in agarose. For the cross-linking studies treated and control samples were chilled on ice (to prevent any repair of DNA damage) and irradiated to a dose of 20 Gy in a Caesium-137 source (0.4 Gy/min). Control, (unirradiated, non-drug treated cells) were maintained on ice in the same manner as treated samples.
(§8) Glass microscope slides, frosted at one end, were pre-coated with 1% normal agarose in distilled water. These slides were allowed to air dry overnight prior to use. A 1% low melting point agarose (LMP) mixture in PBS was melted and held at 45° C. 1 ml of LMP was then added to 0.5 ml of cell suspension on ice and the resultant mixture was pipetted onto a pre-coated glass microscope slide and allowed to set for 1-2 minutes before being transferred to an ice tray. The slides were immersed in ice cold lysis solution (100 mM EDTA, 10 mM Tris-HCl, 1% Triton ×100, 1% DMSO, 2.5M NaCl) for 1 hr, and washed three times by immersion in fresh double distilled water for 15 minutes.
(§9) Slides were then placed onto a flat bed electrophoresis tank and covered (5-6 mm) with alkali unwinding solution (50 mM NaOH, 1 mM EDTA buffered to pH 12.5) and left under subdued lighting for 45 minutes to allow the DNA to unwind before being subjected to electrophoresis at 0.6V/cm for 25 minutes. Each slide was rinsed with 2×1 ml of 0.4M Tris-HCl, pH 8.0 and allowed to dry in air. The dried slides were then rehydrated for 20 minutes with double distilled water, 2×1 ml of propidium iodide solution (2.5 μg/ml) was added and staining was allowed to proceed for 15 minutes. Slides were then immersed in 1 litre of double distilled water for 1 hour to reduce excess background staining. The slides were cover slipped and then examined at 250× magnification under an epifluorescent microscope (Zeiss-Jenamed) using green light from a 50 watt mercury source with a 580 nm reflector and a 590 nm barrier filter set. Images were captured using an attached Sony HAD-1 interline CCD camera and Komet software analysis package (Kinetic Imaging). Twenty-five images from each of two duplicate slides were captured and analysed and the individual “comet moments” as defined by Olive et al^13, were calculated. The total fluorescence of the image represents the amount of DNA present and the length of the image, measured in pixels, represents the length of migration of the DNA. The head and tail areas of the image were identified and the intensity of each was determined. The tail moment is calculated by multiplying the fraction of DNA present in the tail by half the length of the tail.

A2780/mcp8 = experiment: Comet assay, DNA crosslinking; format: cell-based, human; conditions: ratio >1 = more cross-linking in parental than in platinum-resistant line
Description: as §5
(§10) Table 3 illustrates the results of the following calculation using the DNA cross-linking results obtained in the Comet assays:
as §6, §7, §8, §9

A2780carb = experiment: Comet assay, DNA crosslinking; format: cell-based, human; conditions: ratio >1 = more cross-linking in parental than in platinum-resistant line
Description: as §5, §10, §6, §7, §8, §9

A2780cis = experiment: Comet assay, DNA crosslinking; format: cell-based, human; conditions: ratio >1 = more cross-linking in parental than in platinum-resistant line
Description: as §5, §10, §6, §7, §8, §9

A2780mcp1 = experiment: Comet assay, DNA crosslinking; format: cell-based, human; conditions: ratio >1 = more cross-linking in parental than in platinum-resistant line
Description: as §5, §10, §6, §7, §8, §9

ccu24 = experiment: Comet assay, DNA crosslinking; format: cell-based, human; conditions: ratio >1 = more cross-linking in parental than in platinum-resistant line
Description: as §5, §10, §6, §7, §8, §9

cor123 = experiment: Comet assay, DNA crosslinking; format: cell-based, human; conditions: ratio >1 = more cross-linking in parental than in platinum-resistant line
Description: as §5, §10, §6, §7, §8, §9

L1210 = experiment: Comet assay, DNA crosslinking; format: cell-based, murine; conditions: ratio >1 = more cross-linking in parental than in platinum-resistant line
Description: as §5, §10, §6, §7, §8, §9

[2] = Table 2, further series of assays
[3] = Table 2, further series of assays, A2780/mcp1
[4] = Table 2, further series of assays, A2780/mcp8
[5] = Table 1, first series of assays
[6] = Table 1, first series of assays, mcp1
[7] = Table 1, first series of assays, mcp8

Structure (SMILES)	IC50 (A2780-S cell line; [2]) [nM]	IC50 (A2780carb cell line; [2]) [nM]	IC50 (A2780cis cell line; [2]) [nM]	IC50 (ccu24 cell line; [2]) [nM]	IC50 (ccu24/cpr cell line; [2]) [nM]	IC50 (cor123 cell line; [2]) [nM]	IC50 (cor123/cpr cell line; [2]) [nM]	IC50 (mcp1 cell line; [3]) [nM]	IC50 (mcp8 cell line; [4]) [nM]	IC50 (L1210 cell line; [2]) [nM]	IC50 (L1210/M1140 cell line; [2]) [nM]	IC50 (A2780-S cell line; [5]) [nM]	IC50 (A2780carb cell line; [5]) [nM]	IC50 (A2780cis cell line; [5]) [nM]	IC50 (ccu24 cell line; [5]) [nM]	IC50 (ccu24/cpr cell line; [5]) [nM]	IC50 (cor123 cell line; [5]) [nM]	IC50 (cor123/cpr cell line; [5]) [nM]	IC50 (mcp1 cell line; [6]) [nM]	IC50 (mcp8 cell line; [7]) [nM]	further results
N.N.O=C([O-])C1(C(=O)[O-])CCC1.[Pt+2] [Carboplatin, carboplatin, reference compound]	1590	32200	34600	5820	27200	5350	29800	24800	26800	15300	47800										DNA cross-linking in parental cell lines ([1]; parental (platinum-sensitive) A2780, L1210 and cor123 cell lines): extensive DNA cross-linking; DNA cross-linking in platinum-resistant cell lines ([1]; platinum-resistant cell lines): much less cross-linking
c1ccc([PH]([Au][CH2]c2cc[c]([Au][PH](c3ccccc3)(c3ccccc3)c3ccccc3)cc2)(c2ccccc2)c2ccccc2)cc1 [D]	36.6	13.5	10.2	39.5	15.6	25.4	19.7	19.5	14.8	50.3	20.6	32.4	10.3	7.3	36.4	12.5	22.3	15.7	8.4	6.8	IC50 (L1210 cell line; [5]): 48.7 nM; IC50 (L1210/M1140 cell line; [5]): 17.4 nM; DNA crosslinking (Comet) ratio (A2780/mcp8): 0.50; DNA crosslinking (Comet) ratio (A2780carb): 0.63; DNA crosslinking (Comet) ratio (A2780cis): 0.54; DNA crosslinking (Comet) ratio (A2780mcp1): 0.48; DNA crosslinking (Comet) ratio (ccu24): 0.47; DNA crosslinking (Comet) ratio (cor123): 0.62; DNA crosslinking (Comet) ratio (L1210): 0.63
c1ccc([PH]([Au][CH2]c2ccc[c]([Au][PH](c3ccccc3)(c3ccccc3)c3ccccc3)c2)(c2ccccc2)c2ccccc2)cc1 [E]	11.2	0.9	0.7	13.5	5.4	21.1	4.4	3.9	4.7	35.6	8.5	8.9	0.6	0.4	10.2	2.4	17.7	1.4	0.9	0.9	IC50 (L1210 cell line; [5]): 32.5 nM; IC50 (L1210/M1140 cell line; [5]): 5.3 nM; DNA crosslinking (Comet) ratio (A2780/mcp8): 0.48; DNA crosslinking (Comet) ratio (A2780carb): 0.40; DNA crosslinking (Comet) ratio (A2780cis): 0.39; DNA crosslinking (Comet) ratio (A2780mcp1): 0.41; DNA crosslinking (Comet) ratio (ccu24): 0.46; DNA crosslinking (Comet) ratio (cor123): 0.43; DNA crosslinking (Comet) ratio (L1210): 0.40
c1ccc([PH]([Au][CH2]c2cccc[c]2[Au][PH](c2ccccc2)(c2ccccc2)c2ccccc2)(c2ccccc2)c2ccccc2)cc1 [F]	24.3	10.4	8.3	26.4	12.2	31.1	14.6	10.4	11.4	31.2	14.4	20.4	7.3	5.4	22.1	9.5	28.2	11.4	6.3	5.3	IC50 (L1210 cell line; [5]): 28.1 nM; IC50 (L1210/M1140 cell line; [5]): 11.4 nM; DNA crosslinking (Comet) ratio (A2780/mcp8): 0.56; DNA crosslinking (Comet) ratio (A2780carb): 0.61; DNA crosslinking (Comet) ratio (A2780cis): 0.52; DNA crosslinking (Comet) ratio (A2780mcp1): 0.54; DNA crosslinking (Comet) ratio (ccu24): 0.60; DNA crosslinking (Comet) ratio (cor123): 0.62; DNA crosslinking (Comet) ratio (L1210): 0.53
